Results from patent US20230357248A1, “PYRROLOPYRIMIDINE COMPOUND AS BTK INHIBITOR AND USE THEREOF” (MEDSHINE DISCOVERY INC., priority 2019, published 2023).

Target: BTK^C481S (Homo sapiens (Human), UniProt Q06187, C481S)
Experiment: BTK enzyme activity assay
Assay type: biochemical
Conditions: 200 μM ATP; 33P-ATP, filter-binding method
Procedure: The specific assay process of BTK enzyme activity assay is as follows: Buffer: 20 mM 2-[4-(2-hydroxyethyl)-1-piperazinyl]ethanesulfonic acid (Hepes) (pH 7.5), 10 mM magnesium chloride, 1 mM ethylenebis(oxyethylenenitrilo)tetraacetic acid (EGTA), 0.02% polyoxyethylene dodecyl ether (Brij35), 0.02 mg/mL BSA, 0.1 mM sodium vanadate (Na3VO4), 2 mM dithiothreitol (DTT), 1% DMSO, 200 μM adenosine triphosphate (ATP). • 1. The substrate was prepared in freshly prepared reaction buffer; • 2. The required cofactor was added to the above-mentioned substrate solution; • 3. The kinase BTK^C481S was added to the above-mentioned substrate solution and mixed well; • 4. The compound dissolved in DMSO was added to the kinase reaction mixture by Echo550 (Acoustic technology; nanoliter range), and the mixture was incubated at room temperature for 20 minutes; • 5. ^33P-ATP (specific radioactivity of 10 μCi/μL) was added to the reaction mixture to initiate the reaction; • 6. The mixture was incubated at room temperature for 2 hours; • 7. The radioactivity was detected by filter-binding method; • 8. Kinase activity data represented the percentage of remaining kinase activity in the assay sample compared to the vehicle (dimethyl sulfoxide) reaction.

Chain of BTK^C481S (Q06187 whole entry C481S): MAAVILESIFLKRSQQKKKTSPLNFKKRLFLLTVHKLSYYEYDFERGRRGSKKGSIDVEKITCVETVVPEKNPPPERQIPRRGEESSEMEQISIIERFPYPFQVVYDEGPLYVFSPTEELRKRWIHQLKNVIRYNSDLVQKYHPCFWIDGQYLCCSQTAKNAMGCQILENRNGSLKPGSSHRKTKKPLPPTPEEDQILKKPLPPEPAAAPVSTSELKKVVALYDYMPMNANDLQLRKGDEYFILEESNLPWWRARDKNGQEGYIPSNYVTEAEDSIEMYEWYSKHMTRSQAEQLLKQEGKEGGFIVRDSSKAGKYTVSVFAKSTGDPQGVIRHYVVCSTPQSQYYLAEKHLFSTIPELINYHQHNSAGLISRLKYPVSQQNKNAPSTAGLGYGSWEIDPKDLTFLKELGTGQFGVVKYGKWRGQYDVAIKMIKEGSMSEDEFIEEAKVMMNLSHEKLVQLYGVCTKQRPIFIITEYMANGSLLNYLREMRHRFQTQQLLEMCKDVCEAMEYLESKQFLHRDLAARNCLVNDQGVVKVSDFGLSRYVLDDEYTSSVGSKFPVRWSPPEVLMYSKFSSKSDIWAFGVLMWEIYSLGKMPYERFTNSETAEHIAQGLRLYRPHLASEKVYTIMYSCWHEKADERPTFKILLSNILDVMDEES

Point of comparison: `O=C(c1ccc(Oc2ccccc2)cc1Cl)c1c[nH]c2ncnc(N[C@H]3CO[C@H](CO)C[C@H]3OCCO)c12` [Compound 8], IC50 8.9 nM. Against it:
- O=C(c1ccc(Oc2ccccc2)cc1Cl)c1c[nH]c2ncnc(N[C@H]3CO[C@H](CO)C4CC43)c12 (stereo partly shown) [Compound 1] — 5.2-fold lower, 1.7 nM
- O=C(c1ccc(Oc2ccccc2)cc1Cl)c1c[nH]c2ncnc(N[C@H]3CO[C@H](CO)CC3(F)F)c12 [Compound 2] — within 1.5-fold, 12.5 nM
- O=C(c1ccc(Oc2ccccc2)cc1Cl)c1c[nH]c2ncnc(N[C@H]3CO[C@H](CO)C[C@@H]3F)c12 [Compound 3] — within 1.5-fold, 6.7 nM
- N#C[C@@H]1CC[C@@H](Nc2ncnc3[nH]cc(C(=O)c4ccc(Oc5ccccc5)cc4Cl)c23)CO1 [Compound 5] — within 1.5-fold, 10.7 nM
- N#CC[C@@H]1CC[C@@H](Nc2ncnc3[nH]cc(C(=O)c4ccc(Oc5ccccc5)cc4Cl)c23)CO1 [Compound 6] — within 1.5-fold, 6.5 nM
- CO[C@H]1C[C@@H](CO)OC[C@@H]1Nc1ncnc2[nH]cc(C(=O)c3ccc(Oc4ccccc4)cc3Cl)c12 [Compound 7] — 4.9-fold higher, 43.6 nM
- CO[C@@H]1C[C@@H](CO)OC[C@@H]1Nc1ncnc2[nH]cc(C(=O)c3ccc(Oc4ccccc4)cc3C)c12 [Compound 9] — 1.7-fold higher, 15.2 nM
- CO[C@@H]1C[C@@H](CO)OC[C@@H]1Nc1ncnc2[nH]cc(C(=O)c3ccc(Oc4ccccc4)cc3F)c12 [Compound 10] — 1.7-fold higher, 14.9 nM
- CO[C@@H]1C[C@@H](CO)OC[C@@H]1Nc1ncnc2[nH]cc(C(=O)c3ccc(Oc4ccccc4F)cc3Cl)c12 [Compound 12] — 4.5-fold higher, 39.8 nM
- [2H]C([2H])([2H])O[C@@H]1C[C@@H](CO)OC[C@@H]1Nc1ncnc2[nH]cc(C(=O)c3ccc(Oc4ccccc4)cc3Cl)c12 [Compound 13] — 1.7-fold higher, 15.1 nM

System: TMD8 cells
Experiment: BTK cell activity assay (CellTiter Glo)
Assay type: cell-based
Conditions: Homo sapiens, Cell Titer Glo, read-out: Relative IC50
Procedure: 1. Cell Culture and Passage
The medium, trypsin and 1×PBS used in the cell passage process were preheated in a 37° C. water bath. The supernatant was aspirated.
1 mL of trypsin was added to rinse, and the rinse solution was aspirated. 1 mL of trypsin was added, respectively, and cells were digested at 37° C. until the cells fell off. 10 mL of culture medium was added and mixed well. The mixture was centrifuged at 1000 rpm for 5 min and the cells were resuspended in 10 mL of culture medium. 0.7 mL of cell suspension was pipetted into a counting cup and counted on ViCell XR to respectively obtain a cell density of 0.327 million/mL. 1.17 mL of cell suspension and culture medium were weighed, respectively, to dilute the cell suspension. According to the microplate layout diagram below, 100 μL of phosphate buffer was added to the peripheral wells of the 384-well microplate, and 40 μL of cell suspension was added to other wells, respectively. The cell plate was then cultured in an incubator.
2. Dosing • (1) Preparation of compound:
A 9 μL dilution of the compound to be assayed was added to a shallow-well plate for Pod (Labcyte, #LP-0200). The shallow-well plate was centrifuged at 2500 rpm for 30 s. • (2) The cell plate was removed from the incubator. • (3) According to the microplate layout diagram below, compounds were serially diluted 3-fold in Pod to obtain 10 concentrations. The diluted compounds were added to the cell plate at 100 nL, respectively, and then the cell plate was returned to the incubator for culture. • 3. At Day 0, 20 μL of CellTiter Glo was added to the plate with DMSO added, and the mixture was shaken in the dark for 10 minutes. The plate was read with Envision. • 4. At Day 5: CTG was added and the plate was read. • (1) After being cultured for 72 h, 20 μL of Cell Titer Glo was added to the cell plate, and the mixture was shaken in the dark for 10 minutes. • (2) The plate was read with Envision.
Assay Results • 1. Average value and standard deviation of 0% inhibition (DMSO well, MAX) and 100% inhibition (day 0, DMSO) in each group were calculated; • 2. […]

Point of comparison: `O=C(c1ccc(Oc2ccccc2)cc1Cl)c1c[nH]c2ncnc(N[C@H]3CO[C@H](CO)C[C@@H]3F)c12` [Compound 3], IC50 217 nM. Against it:
- O=C(c1ccc(Oc2ccccc2)cc1Cl)c1c[nH]c2ncnc(N[C@H]3CO[C@H](CO)CC3(F)F)c12 [Compound 2] — within 1.5-fold, 269 nM
